This passage reports IC50 results from US8183265B2, “2-adamantyl-butyramide derivatives as selective 11β-HSD1 inhibitors” (Merck Patent GmbH, priority 2006, dated 2012).

One may read the IC50 as the concentration at which inhibition is half-maximal.

The target of this test is Human recombinant 11beta-hydroxysteroid dehydrogenase type 1 (11beta-HSD1) (Homo sapiens, UniProt P28845). Briefly: 11beta-HSD1 enzyme assay (HTRF cortisol). (In general: In TR-FRET formats the signal depends on donor and acceptor labels being close together.)
Human recombinant 11beta-hydroxysteroid dehydrogenase type 1 (11beta-HSD1), sequence (P28845 whole entry): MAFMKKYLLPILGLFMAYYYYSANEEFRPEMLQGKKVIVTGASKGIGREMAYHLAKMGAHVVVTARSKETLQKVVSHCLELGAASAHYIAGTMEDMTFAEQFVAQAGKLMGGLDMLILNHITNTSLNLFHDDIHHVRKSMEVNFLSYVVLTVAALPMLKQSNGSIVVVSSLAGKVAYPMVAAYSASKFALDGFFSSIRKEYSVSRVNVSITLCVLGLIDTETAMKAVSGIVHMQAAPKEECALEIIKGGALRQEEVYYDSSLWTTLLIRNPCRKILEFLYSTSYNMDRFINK

Procedure: Mice liver microsome fractions were purchased from TEBU.
The 11beta-HSD1 enzyme assay was carried out in 96 well microtiter plates in a total volume of 100 μl containing 30 mM Hepes buffer, pH 7.4 with 1 mM EDTA, substrate mixture cortisone/NADPH (200 nM/200 μM), G-6-P (1 mM) and inhibitors in serial dilutions. […] Following mixing, the plates were shaken for 150 minutes at 37° C. The reactions were terminated with 10 μl Acid-18beta glycyrrhetinic stop solution. Determinations of cortisol levels in 11 beta-HSD1 preparations were monitored by HTRF (HTRF cortisol assay from Cis bio international).

Turning to `COc1cc(Cl)ccc1OCC(C)(C)CC(=O)NC1C2CC3CC(C2)CC1C3` (stereo not shown), the IC50 came to 45 nM.
